Measurements from PubChem BioAssay (NCI).
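In this assay, cells in 96-well plates receive the compound at five concentrations for 48 hours. Endpoints are linearly interpolated between the surrounding concentrations. TGI denotes the concentration required for complete inhibition of growth.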

Experiments:
Experiment in all cases: NCI tumour cell line growth inhibition, 48 h
[1] = tested on: OVCAR-5 ovarian
[2] = tested on: SF-539 CNS
[3] = tested on: DU-145 prostate
[4] = tested on: PC-3 prostate
[5] = tested on: MDA-MB-435
[6] = tested on: OVCAR-8 ovarian
[7] = tested on: SK-MEL-2 melanoma
[8] = tested on: RXF 393 renal
[9] = tested on: SR leukemia
[10] = tested on: UACC-257 melanoma
[11] = tested on: SF-268 CNS
[12] = tested on: HT29 colon
[13] = tested on: ACHN renal
[14] = tested on: 786-0 renal
[15] = tested on: HCC-2998 colon
[16] = tested on: UACC-62 melanoma
[17] = tested on: NCI-H226 lung
[18] = tested on: SNB-19 CNS
[19] = tested on: SK-MEL-5 melanoma
[20] = tested on: OVCAR-3 ovarian
[21] = tested on: MDA-MB-231 breast
[22] = tested on: UO-31 renal
[23] = tested on: IGROV1 ovarian
[24] = tested on: A498 renal
[25] = tested on: SW-620 colon
[26] = tested on: OVCAR-4 ovarian
[27] = tested on: U251 CNS
[28] = tested on: CAKI-1 renal
[29] = tested on: SK-MEL-28 melanoma
[30] = tested on: SNB-75 CNS
[31] = tested on: MALME-3M melanoma
[32] = tested on: EKVX NSCLC
[33] = tested on: KM12 colon
[34] = tested on: COLO 205 colon
[35] = tested on: BT-549 breast
[36] = tested on: HS 578T breast
[37] = tested on: SF-295 CNS
[38] = tested on: MCF7 breast
[39] = tested on: M14 melanoma
[40] = tested on: A549 NSCLC
[41] = tested on: NCI/ADR-RES ovarian
[42] = tested on: NCI-H460 lung
[43] = tested on: HCT-116 colon
[44] = tested on: NCI-H522 lung
[45] = tested on: K-562 leukemia
[46] = tested on: TK-10 renal
[47] = tested on: SK-OV-3 ovarian
[48] = tested on: HCT-15 colon
[49] = tested on: NCI-H23 lung
[50] = tested on: CCRF-CEM leukemia
[51] = tested on: HOP-92 NSCLC
[52] = tested on: MOLT-4 leukemia
[53] = tested on: HL-60(TB) leukemia
[54] = tested on: HOP-62 NSCLC
[55] = tested on: LOX IMVI melanoma
[56] = tested on: T-47D breast
[57] = tested on: RPMI-8226 leukemia

**Q.** Which TGI [1] does the source give for `CCOC(=O)c1nc2c(Cl)c3ncccc3cc2[nH]c1=O` here?
**A.** > 100 µM

**Q.** And the TGI [2]?
**A.** > 100 µM

**Q.** And the TGI [3]?
**A.** > 100 µM

**Q.** What about the TGI [4] of the same compound?
**A.** > 100 µM

**Q.** And the TGI [5]?
**A.** > 100 µM

**Q.** What about the TGI [6] of the same compound?
**A.** > 100 µM

**Q.** What about the TGI [7] of the same compound?
**A.** > 100 µM

**Q.** And the TGI [8]?
**A.** > 100 µM

**Q.** What about the TGI [9] of the same compound?
**A.** > 100 µM

**Q.** What about the TGI [10] of the same compound?
**A.** > 100 µM

**Q.** And the TGI [11]?
**A.** > 100 µM

**Q.** What about the TGI [12] of the same compound?
**A.** > 100 µM

**Q.** And the TGI [13]?
**A.** > 100 µM

**Q.** And the TGI [14]?
**A.** > 100 µM

**Q.** What about the TGI [15] of the same compound?
**A.** 43.8 µM

**Q.** What about the TGI [16] of the same compound?
**A.** 50.4 µM

**Q.** And the TGI [17]?
**A.** > 100 µM

**Q.** What about the TGI [18] of the same compound?
**A.** > 100 µM

**Q.** And the TGI [19]?
**A.** 22.7 µM

**Q.** And the TGI [20]?
**A.** > 100 µM

**Q.** What about the TGI [21] of the same compound?
**A.** > 100 µM

**Q.** What about the TGI [22] of the same compound?
**A.** > 100 µM

**Q.** What about the TGI [23] of the same compound?
**A.** > 100 µM

**Q.** And the TGI [24]?
**A.** > 100 µM

**Q.** And the TGI [25]?
**A.** > 100 µM

**Q.** And the TGI [26]?
**A.** > 100 µM

**Q.** And the TGI [27]?
**A.** > 100 µM

**Q.** What about the TGI [28] of the same compound?
**A.** > 100 µM

**Q.** And the TGI [29]?
**A.** > 100 µM

**Q.** And the TGI [30]?
**A.** > 100 µM

**Q.** And the TGI [31]?
**A.** > 100 µM

**Q.** What about the TGI [32] of the same compound?
**A.** > 100 µM

**Q.** What about the TGI [33] of the same compound?
**A.** > 100 µM

**Q.** And the TGI [34]?
**A.** > 100 µM

**Q.** What about the TGI [35] of the same compound?
**A.** 94.7 µM

**Q.** What about the TGI [36] of the same compound?
**A.** > 100 µM

**Q.** And the TGI [37]?
**A.** > 100 µM

**Q.** What about the TGI [38] of the same compound?
**A.** > 100 µM

**Q.** What about the TGI [39] of the same compound?
**A.** > 100 µM

**Q.** And the TGI [40]?
**A.** > 100 µM

**Q.** What about the TGI [41] of the same compound?
**A.** > 100 µM

**Q.** What about the TGI [42] of the same compound?
**A.** 65.8 µM

**Q.** And the TGI [43]?
**A.** > 100 µM

**Q.** What about the TGI [44] of the same compound?
**A.** > 100 µM

**Q.** And the TGI [45]?
**A.** > 100 µM

**Q.** And the TGI [46]?
**A.** > 100 µM

**Q.** And the TGI [47]?
**A.** > 100 µM

**Q.** And the TGI [48]?
**A.** 56.5 µM

**Q.** And the TGI [49]?
**A.** > 100 µM

**Q.** And the TGI [50]?
**A.** > 100 µM

**Q.** And the TGI [51]?
**A.** > 100 µM

**Q.** And the TGI [52]?
**A.** 45.6 µM

**Q.** And the TGI [53]?
**A.** > 100 µM

**Q.** What about the TGI [54] of the same compound?
**A.** > 100 µM

**Q.** How did the TGI [55] turn out when `CCOC(=O)C1=C(Nc2cccc(OC)c2)OCC1=O` was run?
**A.** > 100 µM

**Q.** What about the TGI [2] of the same compound?
**A.** > 100 µM

**Q.** And the TGI [3]?
**A.** > 100 µM

**Q.** What about the TGI [4] of the same compound?
**A.** > 100 µM

**Q.** What about the TGI [5] of the same compound?
**A.** > 100 µM

**Q.** What about the TGI [6] of the same compound?
**A.** > 100 µM

**Q.** What about the TGI [56] of the same compound?
**A.** > 100 µM

**Q.** What about the TGI [7] of the same compound?
**A.** > 100 µM

**Q.** What about the TGI [8] of the same compound?
**A.** > 100 µM

**Q.** And the TGI [9]?
**A.** > 100 µM

**Q.** And the TGI [10]?
**A.** > 100 µM

**Q.** What about the TGI [11] of the same compound?
**A.** > 100 µM

**Q.** What about the TGI [12] of the same compound?
**A.** > 100 µM

**Q.** And the TGI [13]?
**A.** > 100 µM

**Q.** What about the TGI [14] of the same compound?
**A.** > 100 µM

**Q.** And the TGI [15]?
**A.** > 100 µM

**Q.** And the TGI [16]?
**A.** > 100 µM

**Q.** And the TGI [17]?
**A.** > 100 µM

**Q.** And the TGI [18]?
**A.** > 100 µM

**Q.** And the TGI [19]?
**A.** > 100 µM

**Q.** What about the TGI [21] of the same compound?
**A.** > 100 µM

**Q.** And the TGI [22]?
**A.** > 100 µM

**Q.** What about the TGI [23] of the same compound?
**A.** > 100 µM

**Q.** And the TGI [24]?
**A.** > 100 µM

**Q.** What about the TGI [25] of the same compound?
**A.** > 100 µM

**Q.** What about the TGI [26] of the same compound?
**A.** > 100 µM

**Q.** And the TGI [27]?
**A.** > 100 µM

**Q.** What about the TGI [28] of the same compound?
**A.** > 100 µM

**Q.** What about the TGI [29] of the same compound?
**A.** > 100 µM

**Q.** And the TGI [30]?
**A.** > 100 µM

**Q.** And the TGI [32]?
**A.** > 100 µM

**Q.** And the TGI [33]?
**A.** > 100 µM

**Q.** What about the TGI [34] of the same compound?
**A.** > 100 µM

**Q.** What about the TGI [36] of the same compound?
**A.** > 100 µM

**Q.** What about the TGI [37] of the same compound?
**A.** > 100 µM

**Q.** What about the TGI [38] of the same compound?
**A.** > 100 µM

**Q.** What about the TGI [39] of the same compound?
**A.** > 100 µM

**Q.** And the TGI [41]?
**A.** > 100 µM

**Q.** And the TGI [42]?
**A.** > 100 µM

**Q.** And the TGI [43]?
**A.** > 100 µM

**Q.** And the TGI [57]?
**A.** > 100 µM

**Q.** And the TGI [45]?
**A.** > 100 µM

**Q.** What about the TGI [46] of the same compound?
**A.** > 100 µM

**Q.** And the TGI [47]?
**A.** > 100 µM

**Q.** What about the TGI [48] of the same compound?
**A.** > 100 µM

**Q.** And the TGI [49]?
**A.** > 100 µM

**Q.** And the TGI [50]?
**A.** > 100 µM

**Q.** What about the TGI [51] of the same compound?
**A.** > 100 µM

**Q.** And the TGI [52]?
**A.** > 100 µM

**Q.** What about the TGI [53] of the same compound?
**A.** > 100 µM

**Q.** What about the TGI [54] of the same compound?
**A.** > 100 µM
